Assay [1] relates to TA3/St murine mammary carcinoma cells. The settings on record: soft agar; TA3/St transfectant clones over-expressing the protein; cited from earlier work.
Assay [2] relates to MCF-7/Adr drug-resistant human mammary carcinoma cells. In words: Drug resistance, viable cell number (Coulter Counter). The settings on record: MCF-7/Adr; decoys introduced by adenovirus infection, or siRNA (FIG. 18). The class given is cell-based. On the procedure: FIG. 15A is a line graph showing that MCF-7/Adr drug-resistant human mammary carcinoma cells grown in culture with hyaluronan oligomers are sensitized to doxorubicin. MCF-7/Adr cells were obtained from MCF-7 cells by being selected for drug resistance by exposure to doxorubicin. Cells were grown for 24 h in 24-well plates in RPMI 1640 medium containing Glutamex 1 plus 10% fetal bovine serum at 37° in 5% CO2. Various concentrations of doxorubicin (doxo) were then added and the cells incubated for another 72 h, followed by a further 24 h in the presence or absence of 100 μg/ml hyaluronan oligomers (o-HA). The oligomers were a mixed population of 3-8 repeating disaccharides in length. The cells were then harvested and the number of viable cells was determined in a Coulter Counter.
FIG. 18 is a set of line graphs showing a resulting cell number, on the ordinate, following drug treatment with doxorubicin, concentration (log) in nM on the abscissa, showing restoration of drug sensitivity (inhibition of drug resistance) by HA oligomers, soluble hyaluronan-binding decoys, and CD44 siRNA, using derivatives of MCF-7 cells as in FIG. 17 above.
Therefore, the effect of co-treatment with hyaluronan oligomers on drug resistance was examined in an established system, i.e. MCF-7/Adr human mammary carcinoma cells that have been selected for resistance to doxorubicin (Fairchild, C. R., et al., Cancer Res 47, 5141-8, 1987). First, the effect of hyaluronan oligomers on resistance to doxorubicin in the MCF-7/Adr cells versus the relatively drug-sensitive, parental MCF-7 cell line was compared.

Assay [3] has as its system TA3/St murine mammary carcinoma cells. As to the kind of experiment: Proliferation in monolayer (anchorage-dependent) culture. Type of assay: cell-based, mouse. As to conditions: 100-150 μg/ml.
Assay [4] concerns α-isoform of PI3 kinase in TA3/St cells. In words: PI3 kinase α isoform assay (immunoprecipitated). The class given is cell-based, mouse. The settings on record: 150 μg/ml polysaccharide controls, 50 nM wortmannin.
The test system of the next assay is PTEN in TA3/St cells. In words: PTEN expression, immunoblotting. The class given is cell-based, mouse. The settings on record: similar amounts (150 μg/ml) of controls. On the procedure: FIG. 8A is a bar graph showing stimulation of expression of PTEN, a tumor suppressor, by HA-oligomers, in TA3/St murine mammary carcinoma cells. Cells were treated in suspension and then processed for immunoblotting of PTEN. The bars represent densitometric quantification of immunoblots after treatment with 10-150 μg/ml hyaluronan oligomers (o-HA) or 150 μg/ml chondroitin sulfate (CS). Results are presented as means of three independent experiments and expressed as percent untreated±S.D.
FIG. 8C is an immunoblot using TA3/St murine mammary carcinoma cells treated as in lanes: 1. untreated; 2. 150 μg/ml chondroitin sulfate; 3. 150 μg/ml chitin oligomers; 4. 150 μg/ml hyaluronan polymer (mol. wt. ˜80 kDa); 5. 50 μg/ml hyaluronan oligomers; 6. 150 μg/ml hyaluronan oligomers. Results are representative of three experiments. Similar results to FIG. 8C were obtained also with HCT116 cells.
PTEN levels in TA3/St mouse mammary carcinoma cells were measured by Western blotting; values were obtained by scanning the blots. HA oligomers (oligo) at 50-100 μg/ml caused ˜6-fold increase in PTEN levels compared to untreated control. […]
(§1) Immunoblotting. […] Immunoreactive bands were detected by enhanced chemiluminescence and the sizes of proteins were estimated using prestained molecular weight standards. Immunoreactive bands were quantified by densitometry. […]
In general terms: In western blotting, separated proteins are transferred to a membrane and probed.

Assay [5] deals with caspase-3 activity in HCT116 human colon carcinoma cells. As to the kind of experiment: Caspase-3 assay. Type of assay: cell-based. As to conditions: HCT116, 150 μg/ml. The protocol: (§2) Treatment of tumor cells and preparation of cell lysates for biochemical assays. TA3/St and HCT116 cells were grown for 72 hours in 14 cm culture dishes, then harvested by trypsinization, washed in PBS and suspended in DMEM containing 10% FBS. Two million cells from these cultures were added to each well of non-adherent, Ultra-low cluster plates and incubated in suspension at 37° C. for a further 72 hours. The cells from each well were then collected, washed in PBS, suspended in 5 ml DMEM medium containing 2% bovine serum albumin (Cohn Analog, Sigma), re-plated in the cluster plates, and incubated in suspension at 37° C. for 96 hours; similar results were obtained with pre-incubations of 24-96 hours for most measurements. The hyaluronan oligomers or other reagents were then added and the cells incubated for another 24 hours in suspension.
The cells treated as above were harvested by centrifugation at room temperature. The pellets were washed twice in PBS, then lysed in buffer containing 1% Nonidet P-40 and protease inhibitors. Cell lysis was achieved by vortexing for three cycles of 15 sec at high speed followed by cooling on ice. The lysate was centrifuged at 12,000×g for 15 min at 4° C. in an Eppendorf 5415R centrifuge. After measuring the protein content of the supernatant, it was flash-frozen in liquid nitrogen and stored at −80° C. until use in the assays below.
Caspase-3 assay. […]

Assay [6] has as its system TA3/St murine mammary carcinoma cells. In words: Apoptosis assay in suspension culture. The class given is cell-based, mouse. The settings on record: 24 hours in suspension; 150 μg/ml controls, 50 nM wortmannin. The protocol:
FIG. 3 is a bar graph showing induction of apoptosis by hyaluronan oligomers under anchorage-independent conditions. TA3/St murine mammary carcinoma cells were grown in suspension in serum-free medium for 24 hours in the presence of 50 or 150 μg/ml hyaluronan oligomers (o-HA), 150 μg/ml of ˜80 kDa molecular weight hyaluronan polymer (HA-80), 150 μg/ml chitin oligomers, 150 μg/ml chondroitin sulfate (CS), or 50 nM wortmannin (WM), a specific inhibitor of mammalian PI3 kinase (phosphoinositide 3-kinase). Apoptotic cells were then analyzed and counted as described in the EXAMPLES section. Results represent the average of two experiments and are expressed as percentage of total cells±range.
Treatment of tumor cells and preparation of cell lysates for biochemical assays. TA3/St and HCT116 cells were grown for 72 hours in 14 cm culture dishes, then harvested by trypsinization, washed in PBS and suspended in DMEM containing 10% FBS. Two million cells from these cultures were added to each well of non-adherent, Ultra-low cluster plates and incubated in suspension at 37° C. for a further 72 hours. […]
Apoptosis assay. […] Viable cells (green) and apoptotic cells containing fragmented nuclei (red) were counted and the percentage of apoptotic cells was then calculated.

Assay [7] has as its system phosphorylated Akt in TA3/St cells. In words: Akt phosphorylation, Western blotting. The class given is cell-based, mouse. As to conditions: 150 μg/ml controls, 1:50 antibody to CD44 (FIG. 6C). On the procedure:
FIG. 6A is a bar graph showing inhibition of Akt phosphorylation by hyaluronan oligomers in TA3/St murine mammary carcinoma cells treated in suspension with 1-150 μg/ml hyaluronan oligomers (o-HA) or 150 μg/mlchondroitin sulfate (CS). Cell lysates were then analyzed by Western blotting for phosphorylated Akt and quantified by densitometry. Results in A and B are presented as means of three independent experiments and expressed as percent untreated±S.D.
FIG. 6C is a representation of a Western blot of phosphorylated Akt from TA3/St cells: 1. untreated; 2. 150 μg/ml chondroitin sulfate; 3. 150 μg/ml hyaluronan polymer (mol. wt. ˜80 kDa); 4. 150 μg/ml chitin oligomers; 5. 50 μg/ml hyaluronan oligomers; 6. 150 μg/ml hyaluronan oligomers; 7. 50 nM wortmannin; 8. 20 μM LY294002; 9. 1:50 dilution of antibody against CD44. Results are representative of three experiments. Similar results to those in FIG. 6C were obtained also with HCT116 cells.
Treatment of tumor cells and preparation of cell lysates for biochemical assays. TA3/St and HCT116 cells were grown for 72 hours in 14 cm culture dishes, then harvested by trypsinization, washed in PBS and suspended in DMEM containing 10% FBS. […]
as §1

The test system of assay [8] is caspase-3 activity in TA3/St murine mammary carcinoma cells. In words: Caspase-3 assay. Type of assay: cell-based, mouse. The settings on record: 150 μg/ml. On the procedure: FIG. 4A is a bar graph showing stimulation of caspase-3 activity in TA3/St murine mammary carcinoma cells by hyaluronan oligomers. Cells were grown in suspension in serum-free medium for 24 hours in the presence of 10, 50 or 150 μg/ml hyaluronan oligomers (o-HA), 150 μg/ml chondroitin sulfate (CS), or 20 μM LY294002 (LY), a specific inhibitor of mammalian PI3 kinase, and then analyzed for caspase-3 activity. Results are presented as the mean of specific activity (absorbance at 405 nm/mg/90 min)±S.D. for three independent experiments.
as §2, with “suspension. […]” for “suspension.”

Assay [9] concerns α-isoform of PI3 kinase in HCT116 cells. In words: PI3 kinase α isoform assay (immunoprecipitated). The class given is cell-based, human. As to conditions: same reagents as FIG. 5D.
Experimental: PI3 kinase assay. For assay of total PI3 kinase, 250 ng of cell lysate protein were used per assay. Assays were performed in a 50 μl reaction mixture containing 0.001% Nonidet P-40, 159 μM ATP, 25 mM MgCl2, 5 mM EGTA, 150 μM ATP, 25 μCi of [γ-^32P] ATP, 125 mM MOPS, pH 7.0, and 0.2 mg/ml sonicated lipids containing phosphatidyl serine, phosphatidyl inositol and phosphatidyl inositol-4,5 bisphosphate in a 1:1:1 (v:v:v) ratio in sonication buffer (25 mM MOPS, pH 7.0, 1 mm EGTA) (Whitman, M. et al (1985) Nature 315, 239-242; Susa, M., et al. (1992) J Biol Chem 267, 22951-22956; Misra, S., et al. (1998) J Biol Chem 273, 26638-26644). The reactions were carried out at 37° C. for 20 min and stopped by addition of 100 μl of CH3OH/1M HCl (1:1). […] The organic layers were combined, dried under nitrogen, and analyzed by thin layer chromatography. ^32P-labeled phosphoinositides were resolved in water:acetic acid:n-propanol (34:1:65) and detected by autoradiography. ^32P incorporation into phosphatidylinositol 3,4,5-phosphate (PIP3) was quantified by liquid scintillation counting of thin layer chromatography spots scraped into and eluted in scintillation fluid.
For assay of specific PI3 kinase isoforms, whole cell lysates were incubated with antibody against the particular isoform plus protein A-Sepharose. PI3 kinase activity of the enzyme immobilized on beads was then measured as described above.

Consider “soluble CD44: hyaluronan-binding decoy, over-expressed in cells by transfection or adenovirus”, for which, in assay [1], the “inhibition of anchorage-independent growth” value is recorded as “effective inhibitor”. In addition, the “reversal of doxorubicin resistance” value in assay [2] is given as “reversed”. In assay [3], the effect on proliferation result is recorded as “Neither HA oligomers nor soluble CD44 significantly affect proliferation”.
Regarding chondroitin sulfate, the “effect on PI3 kinase-α activity” value in [4] (20 μM LY294002, 1:50 antibody to CD44) is “Neither hyaluronan polymer, nor chondroitin sulfate, nor chitin oligomers had a significant effect”; in assay [4] (20 μM LY294002, 1:50 antibody to CD44, listed as chondroitin sulfate (CS)) it was “had no effect”; in [9], “Neither hyaluronan polymer, nor chondroitin sulfate, nor chitin oligomers had a significant effect”. Further, the “effect on PTEN levels” value in the assay with PTEN in TA3/St cells is recorded as “do not stimulate PTEN levels”; in the assay on PTEN in TA3/St cells (listed as Chondroitin sulfate (CS)), “did not increase PTEN levels”. The “effect on caspase-3 activity” value in [5] and in [8] was “no significant effect” in each case. Further, the effect on apoptosis result in assay [6] is given as “do not have significant effects”. The “effect on phosphorylation of Akt” value in assay [7] was “not caused”.
